Measured values published in patent publication US7122326B2 (Universite Louis Pasteur, priority 2001, dated 2006).
Entries after “also recorded” stand apart in the source; their conditions may differ.

Tests used:
[1] = test system: xanthurenic acid receptor(s); format: cell-based
rat [2] = experiment: Open field test of global reactivity (XA); settings: in vivo
rat [3] = experiment: Reversal of XA-induced sedation in the open field test; settings: in vivo
Protocol: Study of reversal of sedation induced by XA 100 mg/kg i.p

rat [4] = experiment: Rotations in rats with unilateral 6-OHDA lesions; format: in vivo; settings: rat, in vivo
[5] = test system: glutamate release in the frontal cortex; experiment: Frontal extracellular glutamate release after retrodialysis of XA; settings: rat, in vivo
Protocol: Amino acids contained in 15 μl of dialysate were separated according to their hydrophobicity by reverse phase high performance liquid chromatography (HPLC). […] The mobile phase was composed of a binary gradient between solution A: 0.05 M NaH2PO4 (Roth) 80% (pH 4.8 adjusted with 10 N NaOH), methanol 20% (Chromanorm, Prolabo); and solution B: 0.05 M NaH2PO4 20% (pH 4.8 ajusted with 10 N NaOH), methanol 80% and THF 5%. Glutamate and GABA were measured by fluorimetric detection at an excitation wavelength of 345 nm and an emission wavelength of 455 nm after derivatization. Chromatogram acquisition and quantitative data analysis were done with Millenium software (Waters).
The samples were derivatized by mixing 15 μl of dialysate with 15 μl of the following derivatization solution: 7.5 mg o-phthaldialdehyde (Sigma) in 4.5 ml of 0.1 M sodium tetraborate pH 9.3, 500 μl of methanol and 10 μl of 3-mercapto-propionic acid (Sigma). The elution rate was 0.8 ml/min at 35° C. in a series of steps: 90% A and 10% B at 0 min; 40% A and 60% B to 15 min (linear gradient); 40% A and 60% B to 19 min (isocratic gradient); 0% A and 100% B to 19.1 min; 0% A and 100% B to 24 min (isocratic gradient); 90% A and 10% B to 24.1 min (isocratic gradient) and 90% A and 10% B to 30 min. […]

rat [6] = experiment: Porsolt test (swimming test); settings: in vivo
Protocol: The following doses were used: 50, 100, 150 and 200 mg/kg i.p.
This test has been validated with imipramine 30 mg/kg. The test described by Porsolt et al., Eur. J. Pharmacol. 1978, 47: 379–391, was used.

mice = settings: mouse, in vivo; cited from earlier work
[7] = in vivo, ip; cited from earlier work
rat [8] = experiment: Dopaminergic stereotypies after intracerebral injection; settings: in vivo
Protocol: The product was injected by the intracerebroventricular route (i.c.v.) on the one hand, and in defined brain structures on the other hand: ventral tegmental area (A10), substantia nigra (A9) or nucleus accumbens. […] After disappearance of the stereotypies (30±15 minutes), reinjection of XA induced the same effects.
The following stereotypies are observed: licking, chewing, hyperactivity, exploring, standing, grooming, burrowing, stretching and sniffing.
These behaviors developed two minutes after the intracerebral injection and lasted for 30 to 40 minutes. One hour after such behaviors disappeared, they could be re-induced by another injection.

rat [9] = settings: in vivo
rat [10] = experiment: Object recognition test; settings: in vivo
Protocol: Ennaceur and Delacour, Behav. Brain Res. 1988, 31: 47–59.
Doses of 37.5 and 75 mg/kg i.p. were used.

[11] = target: xanthurenic acid binding site(s); experiment: [3H]-XA binding to synaptic membranes in the presence of copper ions; design: species or system rat; settings: pH 6.5
rat [12] = experiment: Social interactions between two congeners; settings: in vivo
Source text: This tendency was confirmed by a test evaluating social interactions between two congeners (Ramos et al., Behav. Brain Res., 1997, 85: 57–69).

[13] = test system: xanthurenic acid binding site(s); experiment: [3H]-XA binding to synaptic membranes, without ions; design: species or system rat
[14] = read-out: IC50, two site binding model, first site
[15] = read-out: IC50, two site binding model, second site

SMILES: O=C(O)c1cc(O)c2cccc(O)c2n1 [XA, xanthurenic acid]
- factor of increase of current amplitude at the peak of the transient current [1]: 5 factor
- factor of increase of current amplitude, on average [1]: 5.0±1.7 factor
- inversion potential, onset of the response [1]: −16.5 mV
- inversion potential, second phase of the response [1]: −4.2 mV
- mean outflux current [1]: considerably increased
- doses to obtain an anxiolytic effect in animals (rat [2]): less than 50 mg/kg
- exploration of the center of the cage / open field (rat [2]): significantly increased; also recorded: promotes movement of the animal to the center of the lighted open field
- sedation in the open field test (rat [2]): absence of sedation
- Grooming (rat [3]): 4 ± 2
- Inner squares (rat [3]): 19 ± 6
- Outer squares (rat [3]): 91 ± 17
- Standing (rat [3]): 37 ± 14
- Total squares (rat [3]): 110 ± 25
- controlateral rotations induced by apomorphine (rat [4]): did not antagonize; also recorded: did not modify the number of controlateral rotations
- ipsilateral rotations induced by amphetamine (rat [4]): had no effect
- decrease in GLU release [5]: 37%
- cumulative duration of immobility (rat [6]): statistically significant decrease in the cumulative duration of immobility; also recorded: duration of immobility decreases with increasing doses
- head twitch behavior (mice): does not induce head twitch behavior
- latency time to onset of epileptic seizures [7]: prolonged the latency time to onset of epileptic seizures
- stereotypies (rat [8]): dose-related stereotypies were observed; also recorded: induced dose-dependent stereotypies
- time to disappearance of the stereotypies (rat [8]): 30 ± 15 min
- amplitude of the EEG waves (rat [9]): reduction in the amplitude of the EEG waves
- decrease in body temperature (rat [9]): −0.5 to −2 °C
- object recognition score (rat [10]): significant increase in the object recognition score
- IC50 [11, 14]: 1 µM
- IC50 [11, 15]: 114 µM
- Kd ([11]; read-out: Kd (saturation experiment)): 7.56 µM
- duration of social interactions (rat [12]): significant increase in the duration of social interactions; also recorded: induces an increase in the duration of social interactions
- sedation in the social interaction test (rat [12]): significant sedative effect
- kob (observed association rate) ([13]; pH 7.4): 0.53 ± 0.16 min⁻¹
- time to binding equilibrium ([13]; pH 7.4): 10 to 15 min
- Kd ([13]; pH 7.4, read-out: Kd (saturation experiment)): 0.743 µM
- IC50 [13, 14]: 0.3 µM
- IC50 [13, 15]: 57 µM
- Kd ([13]; read-out: Kd=koff/kon): ~0.33 µM
